According to PubChem BioAssay (NCI):
“And” between values parts separate entries of the source, which are not always exact repeats. Equal entries are not always repeated.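 1) Cells in 96-well plates. 2) Compound, 48 h, 5 concentrations. 3) Linear interpolation between surrounding doses. 4) Unreached endpoint = highest concentration. GI50 is the concentration that inhibits growth by half. TGI: concentration producing complete growth inhibition.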

Key:
Assay in all cases: inhibition of tumour cell growth, NCI panel, 48 h
T-47D breast = test system: T-47D breast
A498 renal = test system: A498 renal
RXF 393 renal = test system: RXF 393 renal
SF-295 CNS = test system: SF-295 CNS
K-562 leukemia = test system: K-562 leukemia
SF-539 CNS = test system: SF-539 CNS
SK-MEL-28 melanoma = test system: SK-MEL-28 melanoma
CAKI-1 renal = test system: CAKI-1 renal
NCI-H522 lung = test system: NCI-H522 lung
HCC-2998 colon = test system: HCC-2998 colon

## COC(=O)[C@@]1(NC(=O)C(CC(=O)OC(C)(C)C)NC(=O)OC(C)(C)C)C[C@H]1C (some centres undefined)
T-47D breast
  TGI: > 100 µM
A498 renal
  TGI: > 100 µM
RXF 393 renal
  TGI: > 100 µM
SF-295 CNS
  TGI: > 100 µM
K-562 leukemia
  TGI: > 100 µM
SF-539 CNS
  TGI: > 100 µM
SK-MEL-28 melanoma
  TGI: > 100 µM
CAKI-1 renal
  TGI: > 100 µM
NCI-H522 lung
  TGI: > 100 µM
HCC-2998 colon
  TGI: > 100 µM

## O=C(O)CCCc1ccccc1
T-47D breast
  GI50: 203 µM and > 1000 µM
  TGI: > 1000 µM
A498 renal
  GI50: > 1000 µM
  TGI: 302 µM and > 1000 µM
RXF 393 renal
  GI50: > 1000 µM
  TGI: 604 µM and > 1000 µM
SF-295 CNS
  GI50: 370 µM and > 1000 µM
  TGI: 738 µM and > 1000 µM
K-562 leukemia
  GI50: > 1 mM
  TGI: 338 µM and > 1000 µM
SF-539 CNS
  GI50: > 1000 µM
  TGI: 533 µM and > 1000 µM
SK-MEL-28 melanoma
  GI50: 325 µM and > 1000 µM
  TGI: > 1000 µM
CAKI-1 renal
  GI50: > 1000 µM
  TGI: > 1000 µM
NCI-H522 lung
  GI50: > 1000 µM
  TGI: 634 µM and > 1000 µM
HCC-2998 colon
  GI50: > 1000 µM
  TGI: 517 µM and > 1000 µM

## c1n[nH]cc1C12C3C4C5C3C1C5C42 (centres undefined)
T-47D breast
  TGI: > 100 µM
A498 renal
  TGI: > 100 µM
RXF 393 renal
  TGI: > 100 µM
SF-295 CNS
  TGI: > 100 µM
K-562 leukemia
  TGI: > 100 µM
SF-539 CNS
  TGI: > 100 µM
SK-MEL-28 melanoma
  TGI: > 100 µM
CAKI-1 renal
  TGI: > 100 µM
NCI-H522 lung
  TGI: > 100 µM
HCC-2998 colon
  TGI: > 100 µM

## COc1ccc(C(=O)Oc2c(C#N)sc3c2c(=O)n(-c2ccccc2)c(=S)n3-c2ccccc2)cc1
T-47D breast
  TGI: > 100 µM
A498 renal
  TGI: 41.4 µM
RXF 393 renal
  TGI: 53.7 µM
SF-295 CNS
  TGI: > 100 µM
K-562 leukemia
  TGI: > 100 µM
SF-539 CNS
  TGI: 49.3 µM
SK-MEL-28 melanoma
  TGI: > 100 µM
CAKI-1 renal
  TGI: 68.9 µM
NCI-H522 lung
  TGI: 4.11 µM
HCC-2998 colon
  TGI: 84.8 µM

## O=[N+]([O-])C(=C/c1cccc2ccccc12)/C(=C\c1cccc2ccccc12)[N+](=O)[O-]
T-47D breast
  TGI: 10.6 µM
A498 renal
  TGI: 33.5 µM
RXF 393 renal
  TGI: 3.67 µM
SF-295 CNS
  TGI: 8.19 µM
K-562 leukemia
  TGI: > 25.9 µM
SF-539 CNS
  TGI: 5.63 µM
SK-MEL-28 melanoma
  TGI: 4.05 µM
CAKI-1 renal
  TGI: 4.68 µM
NCI-H522 lung
  TGI: 3.63 µM
HCC-2998 colon
  TGI: 5.41 µM

## COc1ccc(-n2c(C)nc3ccc(NC4OC(CO)C(O)C(O)C4O)cc3c2=O)cc1 (centres undefined)
T-47D breast
  TGI: > 100 µM
A498 renal
  TGI: > 100 µM
RXF 393 renal
  TGI: > 100 µM
SF-295 CNS
  TGI: > 100 µM
K-562 leukemia
  TGI: > 100 µM
SK-MEL-28 melanoma
  TGI: > 100 µM
CAKI-1 renal
  TGI: > 100 µM
NCI-H522 lung
  TGI: > 100 µM
HCC-2998 colon
  TGI: > 100 µM

## CCOC(=O)/C=C\C(C#N)(C#N)N=Cc1ccsc1
T-47D breast
  TGI: 4.49 µM
A498 renal
  TGI: 33.5 µM
RXF 393 renal
  TGI: 5.46 µM
SF-295 CNS
  TGI: 46.6 µM
K-562 leukemia
  TGI: 14.3 µM
SF-539 CNS
  TGI: 12.9 µM
SK-MEL-28 melanoma
  TGI: 6.89 µM
CAKI-1 renal
  TGI: 5.33 µM
NCI-H522 lung
  TGI: 2.83 µM
HCC-2998 colon
  TGI: 32.3 µM

## CC1SC(c2ccc(Cl)cc2)N(CCc2cccs2)C1=O (centres undefined)
T-47D breast
  GI50: 1.29 µM
  TGI: 6.64 µM
A498 renal
  GI50: 1.21 µM
  TGI: 2.47 µM
RXF 393 renal
  GI50: 1.56 µM
  TGI: 2.94 µM
SF-295 CNS
  GI50: 1.23 µM
  TGI: 2.53 µM
SF-539 CNS
  GI50: 1.72 µM
  TGI: 3.21 µM
SK-MEL-28 melanoma
  GI50: 1.58 µM
  TGI: 2.99 µM
CAKI-1 renal
  GI50: 1.15 µM
  TGI: 3.42 µM
NCI-H522 lung
  GI50: 1.34 µM
  TGI: 2.75 µM
HCC-2998 colon
  GI50: 1.55 µM
  TGI: 3.4 µM

## FC(F)(F)c1cccnc1Sc1nc2ccccc2s1
T-47D breast
  TGI: > 100 µM
A498 renal
  TGI: > 100 µM
RXF 393 renal
  TGI: > 100 µM
SF-295 CNS
  TGI: > 100 µM
K-562 leukemia
  TGI: > 100 µM
SF-539 CNS
  TGI: > 100 µM
SK-MEL-28 melanoma
  TGI: > 100 µM
CAKI-1 renal
  TGI: > 100 µM
NCI-H522 lung
  TGI: > 100 µM
HCC-2998 colon
  TGI: > 100 µM

## c1cncc(CSc2ncnc3nc[nH]c23)c1
T-47D breast
  TGI: > 100 µM
A498 renal
  TGI: > 100 µM
RXF 393 renal
  TGI: > 100 µM
SF-295 CNS
  TGI: > 100 µM
K-562 leukemia
  TGI: > 100 µM
SK-MEL-28 melanoma
  TGI: > 100 µM
CAKI-1 renal
  TGI: > 100 µM
NCI-H522 lung
  TGI: > 100 µM
HCC-2998 colon
  TGI: > 100 µM

## COc1ccc(NC/C=C/C(=C/COC(C)=O)OC(C)=O)cc1
T-47D breast
  TGI: 5.45 µM
A498 renal
  TGI: 3.53 µM
RXF 393 renal
  TGI: 3.04 µM
SF-295 CNS
  TGI: 4.97 µM
K-562 leukemia
  TGI: 3.62 µM
SF-539 CNS
  TGI: 3.8 µM
SK-MEL-28 melanoma
  TGI: 3.89 µM
CAKI-1 renal
  TGI: 4.18 µM
NCI-H522 lung
  TGI: 4.78 µM
HCC-2998 colon
  TGI: 6.84 µM

## CCCCN(C)C(=O)C1=C(C)NC(C)=C(C(=O)N(C)CCCC)C1
T-47D breast
  TGI: > 100 µM
A498 renal
  TGI: > 100 µM
RXF 393 renal
  TGI: > 100 µM
SF-295 CNS
  TGI: > 100 µM
K-562 leukemia
  TGI: > 100 µM
SF-539 CNS
  TGI: > 100 µM
SK-MEL-28 melanoma
  TGI: > 100 µM
CAKI-1 renal
  TGI: > 100 µM
NCI-H522 lung
  TGI: > 100 µM
HCC-2998 colon
  TGI: > 100 µM

## COc1ccc(NC(=O)C(=O)Cc2nc3ccc(C(=O)c4ccccc4)cc3[nH]c2=O)c([N+](=O)[O-])c1
T-47D breast
  TGI: 68.9 µM
A498 renal
  TGI: 54.8 µM
RXF 393 renal
  TGI: > 100 µM
SF-295 CNS
  TGI: > 100 µM
SF-539 CNS
  TGI: > 100 µM
SK-MEL-28 melanoma
  TGI: > 100 µM
CAKI-1 renal
  TGI: > 100 µM
NCI-H522 lung
  TGI: 51.4 µM
HCC-2998 colon
  TGI: > 100 µM

## O=C1C=C(C2=C(C3=CC(=O)c4ccccc4C3=O)C(=O)c3ccccc3C2=O)C(=O)c2ccccc21
T-47D breast
  TGI: 29.5 µM
A498 renal
  TGI: 36.8 µM
RXF 393 renal
  TGI: 14.5 µM
SF-295 CNS
  TGI: 34 µM
K-562 leukemia
  TGI: > 39.5 µM
SF-539 CNS
  TGI: 21.7 µM
SK-MEL-28 melanoma
  TGI: 29.8 µM
CAKI-1 renal
  TGI: 11.7 µM
NCI-H522 lung
  TGI: 7.17 µM
HCC-2998 colon
  TGI: 43.1 µM

## CSc1c(C#N)c(S)n(-c2ccc(Cl)cc2)c(=O)c1C#N
T-47D breast
  TGI: > 100 µM
A498 renal
  TGI: > 100 µM
RXF 393 renal
  TGI: > 100 µM
K-562 leukemia
  TGI: > 100 µM
SF-539 CNS
  TGI: > 100 µM
SK-MEL-28 melanoma
  TGI: > 100 µM
CAKI-1 renal
  TGI: > 100 µM
NCI-H522 lung
  TGI: > 100 µM
HCC-2998 colon
  TGI: > 100 µM
